Reference: US20230157996A1, “SMALL-MOLECULE INHIBITOR TARGETING EB VIRUS NUCLEAR ANTIGEN PROTEIN, PREPARATION METHOD AND USE THEREOF” (priority 2020, published 2023)

Test system: C666-1 cells
Experiment: C666-1 cell viability single concentration (50 μM) inhibition rate (Resazurin)
Type: cell-based
Details: Homo sapiens, C6661, 72 h, 50 μM compound, 72 hours, C666-1 cells; read-out: C666-1 cell viability single concentration (50 μM) inhibition rate, Ratio* (Inh %)
Outline: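 EBV-positive C666-1 cells (5×10^3/well), pre-cultured 24 h, were exposed to compound at 50 μmol/L final for 72 h at 37° C, 5% CO2, in duplicate. Viability by resazurin (3 h, ex 560/em 590 nm); inhibition rate computed relative to DMSO control and medium-only blank.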

SMILES	inhibition at 50 µM [%]
Nc1cccc(N2CC3(C2)CN(c2cccc(C(=O)O)c2N)C3)c1 [Compound 34, 2-amino-3-(6-(3aminophenyl)-2,6-diazaspiro[3.3]heptan-2-yl)benzoic acid]	< 10
O=C(Nc1ccc(Cl)cc1)OCc1ccc(OC2CN(c3cccc(C(=O)O)c3-n3cccc3)C2)cc1 [Example 237]	< 10
O=C(O)c1cccc(N2CC(Oc3ccc(COC4CCOC4)cc3)C2)c1-n1cccc1 (stereo not drawn) [Example 376]	10 to 30
COC(=O)c1cccc(N2CC3(CN(c4ccccc4N)C3)C2)c1N [Example 275, Methyl 2-amino-3-(6-(2-aminophenyl)-2,6-diazaspiro[3.3]heptan-2-yl)benzoate]	10 to 30
O=C(NCc1cccs1)c1cccc(N2CC(Oc3ccc(CO)cc3)C2)c1-n1cccc1 [Example 231, N-(thiophen-2-yl-methyl)-3-(3-(4-(hydroxymethyl)phenoxy)azetidin-1-yl)-2-(1H-pyrrol-1-yl)benzamide]	10 to 30
N#Cc1cc(-c2c(C(=O)O)cccc2N2CC(Oc3ccc(CO)cc3)C2)ccc1F [Example 281, 3′-cyano-4′-fluoro-6-(3-(4-(hydroxymethyl)phenoxy)azetidin-1-yl)-[1,1′-biphenyl]-2-formic acid]	< 10
CCCCOc1ccc(OC2CN(c3cccc(C(=O)OC)c3-n3cccc3)C2)cc1 [Example 107, Methyl 3-(3-(4-butoxyphenoxy)azetidin-1-yl)-2-(1H-pyrrol-1-yl)benzoate]	< 10
CCNC(=S)OCc1ccc(OC2CN(c3cccc(C(=O)OC)c3-n3cccc3)C2)cc1 [Example 238]	10 to 30
O=C(COC1CN(c2cccc(C(=O)O)c2-n2cccc2)C1)Nc1ccccc1 [Example 145, 3-(3-(2-oxo-2-(phenylamino)ethoxy)azetidin-1-yl)-2-(1H-pyrrol-1-yl)benzoic acid]	< 10
COCCOc1ccc(OC2CN(c3cccc(C(=O)OC)c3-n3cccc3)C2)cc1 [Example 224, Methyl 3-(3-(4-(2-methoxyethoxy)phenoxy)azetidin-1-yl)-2-(1H-pyrrol-1-yl)benzoate]	< 10
O=C(O)c1cccc(N2CC(Oc3ccc(CO)cc3)C2)c1-c1cccc(Cl)c1 [Compound 54]	30 to 50
COC(=O)c1cccc(C#CN(Cc2ccc(C)cc2)S(=O)(=O)c2ccc(C)cc2)c1-n1cccc1 [Example 342]	< 10
COC(=O)c1cccc(N2CC(OC(=O)Nc3ccc(C4CNCCO4)c(F)c3)C2)c1-n1cccc1 (stereo not drawn) [Example 151, Methyl 3-(3-(((3-fluoro-4-(morpholin-2-yl)phenyl)carbamoyl)oxy)azetidin-1-yl)-2-(1H-pyrrol-1-yl)benzoate]	10 to 30
COC(=O)c1cccc(N2CC(NC(=O)Nc3cc(OC)cc(OC)c3)C2)c1-n1cccc1 [Example 170, Methyl 3-(3-(3-(3,5-dimethoxyphenyl)ureido)azetidin-1-yl)-2-(1H-pyrrol-1-yl)benzoate]	10 to 30
O=C(NC1CN(c2cccc(C(=O)O)c2-n2cccc2)C1)c1ccccc1 [Example 179, 3-(3-benzamidoazetidin-1-yl)-2-(1H-pyrrol-1-yl)benzoic acid]	< 10
COC(=O)c1cccc(N2CC(Oc3ccc(O)cc3)C2)c1-n1cccc1 [Example 187, Methyl 3-(3-(4-hydroxylphenoxy)azetidin-1-yl)-2-(1H-pyrrol-1-yl)benzoate]	< 10
COC(=O)c1cccc(N2CC(NS(=O)(=O)c3ccc(C)cc3)C2)c1-n1cccc1 [Example 176, Methyl 3-(3-((4-methylphenyl)sulfonamido)azetidin-1-yl)-2-(1H-pyrrol-1-yl)benzoate]	10 to 30
COC(=O)c1cccc(N2CC(Oc3ccc(NC(=S)Nc4cccc(Cl)c4)cc3)C2)c1-n1cccc1 [Example 227, Methyl 3-(3-(4-(3-(3-chlorophenyl)thioureido)phenoxy)azetidin-1-yl)-2-(1H-pyrrol-1-yl)benzoate]	10 to 30
COc1ccc(C(O)C23CC(c4cccc(C(=O)O)c4)(C2)C3)cc1 (stereo not drawn) [Example 273, 3-(3-(hydroxyl(4-methoxyphenyl)methyl)bicyclo[1. 1.1]pentan-1-yl)benzoic acid]	< 10
COC(=O)c1cccc(N2CC(S(=O)(=O)c3ccc(C(C)C)cc3)C2)c1-n1cccc1 [Example 353, Methyl 3-(3-((4-isopropylphenyl)sulfonyl)azetidin-1-yl)-2-(1H-pyrrol-1-yl)benzoate]	10 to 30

SMILES	inhibition at 50 µM [%]
O=C(O)c1cccc(N2CC(Oc3ccc(CO)cc3)C2)c1-n1cccc1 [Compound 38, 3-(3-(4-(hydroxymethyl)phenoxy)azetidin-1-yl)-2-(1H-pyrrol-1-yl)benzoic acid]	< 10
N#Cc1ccc(Oc2ccc(OC3CN(c4cccc(C(=O)O)c4-n4cccc4)C3)cc2)cc1 [Example 211, 3-(3-(4-(4-cyanophenoxy)phenoxy)azetidin-1-yl)-2-(1H-pyrrol-1-yl)benzoic acid]	< 10
CS(=O)(=O)NC(=O)c1cccc(N2CC(Oc3ccc(CO)cc3)C2)c1-n1cccc1 [Example 369, N-methylsulfonyl-(3-(3-(4-(hydroxymethyl)phenoxy)azetidin-1-yl)-2-(1H-pyrrol-1-yl))benzamide]	< 10
CC(=O)NCCOc1ccc(OC2CN(c3cccc(C(=O)O)c3-n3cccc3)C2)cc1 [Example 313, 3-(3-(4-(2-acetylaminoethoxy)phenoxy)azetidin-1-yl)-2-(1H-pyrrol-1-yl)benzoic acid]	< 10
O=C(O)c1cccc(N2CC(Oc3ccc(C(F)(F)F)cc3)C2)c1-n1cccc1 [Compound 82, 2-(1H-pyrrol-1-yl)-3-(3-(4-(trifluoromethyl)phenoxy)azetidin 1-yl)benzoic acid]	< 10
COC(=O)c1cccc(N2CC(OC(=O)NC3CCCCC3)C2)c1-n1cccc1 [Example 149, Methyl 3-(3-((cyclohexylcarbamoyl)oxy)azetidin-1-yl)-2-(1H-pyrrol-1-yl)benzoate]	10 to 30
CN(C)CCNC(=O)c1cccc(N2CC(Oc3ccc(CO)cc3)C2)c1-n1cccc1 [Example 396, N-(2-dimethylamino)ethyl-3-(3-(4-(hydroxymethyl)phenoxy)azetidin-1-yl)-2-(1H-pyrrol-1-yl)benzamide]	< 10
CCNC(=O)c1ccc(OC2CN(c3cccc(C(=O)OC)c3-n3cccc3)C2)cc1 [Example 303, Methyl 3-(3-(4-(ethylcarbamoyl)phenoxy)azetidin-1-yl)-2-(1H-pyrrol-1-yl)benzoate]	10 to 30
CCCOc1ccc(OC2CN(c3cccc(C(=O)O)c3-n3cccc3)C2)cc1 [Example 106, 3-(3-(4-propoxyphenoxy)azetidin-1-yl)-2-(1H-pyrrol-1-yl)benzoic acid]	< 10
COC(=O)c1cccc(N2CC(Oc3ccc(CO)cc3)C2)c1-c1ccc(Cl)cc1 [Compound 57]	10 to 30
COC(=O)c1cccc(N2CC(Oc3ccc(CN4CCOCC4)cc3)C2)c1-n1cccc1 [Example 235, Methyl 3-(3-(4-(morpholinylmethyl)phenoxy)azetidin-1-yl)-2-(1H-pyrrol-1-yl)benzoate]	30 to 50
COC(=O)c1cccc(C#CN(Cc2ccccc2)S(=O)(=O)c2csc3ccccc23)c1-n1cccc1 [Example 320, Methyl 3-((N-benzylbenzo[b]thiophen-3-sulfonamido)ethynyl)-2-(1H-pyrrol-1-yl)benzoate]	< 10
COC(=O)c1cccc(N2CC(OC(=O)NC3CC3)C2)c1-n1cccc1 [Example 155, Methyl 3-(3-((cyclopropylcarbamoyl)oxy)azetidin-1-yl)-2-(1H-pyrrol-1-yl)benzoate]	10 to 30
COC(=O)c1cccc(N2CC(Oc3ccc(COc4ccccc4)cc3)C2)c1-n1cccc1 [Example 114, Methyl 3-(3-(4-(phenoxymethyl)phenoxy)azetidin-1-yl)-2-(1H-pyrrol-1-yl)benzoate]	10 to 30
O=C(O)c1cccc(N2CC(Oc3ccc(CO)cc3)C2)c1-c1ccc2nsnc2c1 [Compound 46]	< 10
COC(=O)c1cccc(N2CC(OC(=S)Nc3ccc(OC)cc3)C2)c1-n1cccc1 [Example 158, Methyl 3-(3-(((4-methoxyphenyl)thiocarbamoyl)oxy)azetidin-1-yl)-2-(1H-pyrrol-1-yl)benzoate]	> 50
O=C(O)c1cccc(N2CC(Oc3cccc(CO)c3)C2)c1-n1cccc1 [Example 298, 3-(3-(3-(hydroxymethyl)phenoxy)azetidin-1-yl)-2-(1H-pyrrol-1-yl)benzoic acid]	< 10
COc1ccc(C23CC(c4cccc(C(=O)O)c4-n4cccc4)(C2)C3)cc1 [Compound 8, 3-(3-(4-methoxyphenyl)bicyclo[1.1.1]pentan-1-yl)-2-(1H-pyrrol-1-yl)benzoic acid]	< 10
COC(=O)c1cccc(N2CC(Oc3ccc(N)cc3)C2)c1-n1cccc1 [Example 253, Methyl 3-(3-(4-aminophenoxy)azetidin-1-yl)-2-(1H-pyrrol-1-yl)benzoate]	10 to 30
COC(=O)c1cccc(N2CC(Oc3ccc(CO)cc3)C2)c1-c1ccc(F)c(C#N)c1 [Compound 68, Methyl 3′-cyano-4′-fluoro-6-(3-(4-(hydroxymethyl)phenoxy)azetidin-1-yl)-[1,1′-biphenyl]-2-formate]	10 to 30

Same assay, conditions: Homo sapiens, C6661, 72 h, read-out: C666-1 cell viability single concentration (50 μM) inhibition rate, Ratio* (Inh %)

SMILES	inhibition at 50 µM [%]
Cc1ccc(S(=O)(=O)N(C#Cc2cccc(C(=O)O)c2-n2cccc2)Cc2ccc(C(F)(F)F)cc2)cc1 [Example 347]	30 to 50
Cc1ccc(S(=O)(=O)N(C#Cc2cccc(C(=O)O)c2-n2cccc2)Cc2cccs2)cc1 [Example 329, Lithium 3-(((4-methyl-N-(thiophen-2-yl-methyl)phenyl)sulfonamido)ethynyl)-2-(1H-pyrrol-1-yl)benzoate]	> 50
